Measured values reported in patent publication US4732901A, “Certain pyridyl, thienyl or furyl propenoic acids or esters having anti-inflammatory anti-allergic properties” (Beecham Group p.l.c., priority 1985, dated 1988).

Columns and labels:
[1] = target: T1, 5-Lipoxygenase enzyme (10,000 g supernatant from RBL-1 cells) (Rattus norvegicus, UniProt P12527); assay: RBL-1 5-Lipoxygenase Screen; assay type: biochemical; conditions: decrease in 5-HETE + 5,12-diHETE formation relative to control, read-out: Per cent inhibition of 5-lipoxygenase at × μM concentration; for inhibition at 20 µM: at 20 μM compound
T1 construct: prepared as a 10,000 g supernatant from RBL-1 cells; endogenous in cells; host or cells: RBL-1 cells (10,000 g supernatant)
T1 sequence (P12527 1-673): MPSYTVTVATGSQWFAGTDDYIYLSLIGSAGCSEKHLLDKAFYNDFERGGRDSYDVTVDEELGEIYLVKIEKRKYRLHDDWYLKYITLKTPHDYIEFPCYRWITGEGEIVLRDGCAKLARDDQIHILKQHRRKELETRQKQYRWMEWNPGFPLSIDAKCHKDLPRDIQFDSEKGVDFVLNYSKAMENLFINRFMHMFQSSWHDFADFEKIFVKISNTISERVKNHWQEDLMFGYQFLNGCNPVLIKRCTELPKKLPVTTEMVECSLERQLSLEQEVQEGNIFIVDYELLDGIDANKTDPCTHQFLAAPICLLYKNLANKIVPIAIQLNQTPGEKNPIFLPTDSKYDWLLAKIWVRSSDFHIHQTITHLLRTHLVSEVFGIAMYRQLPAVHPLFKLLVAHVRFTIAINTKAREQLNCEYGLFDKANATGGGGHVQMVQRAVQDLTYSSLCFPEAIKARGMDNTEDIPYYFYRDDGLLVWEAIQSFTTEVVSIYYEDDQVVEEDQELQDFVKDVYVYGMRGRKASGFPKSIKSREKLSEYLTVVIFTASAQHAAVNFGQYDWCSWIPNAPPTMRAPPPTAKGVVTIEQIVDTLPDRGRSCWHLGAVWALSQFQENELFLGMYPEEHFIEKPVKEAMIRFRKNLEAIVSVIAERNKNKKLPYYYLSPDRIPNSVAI
Protocol: (1) RBL-1 5-Lipoxygenase Screen
5-Lipoxygenase enzyme was prepared as a 10,000 g supernatant from RBL-1 cells by the method of Jakschik (Jakschik, B. A., F. F. Sun, L. M. Lee, and M. M. Steinhoff, 1980, Biochem. Biophys. Res. Comm. 95, 103). The 10,000 g supernatant was diluted with homogenization buffer to the equivalent of 1.5-2.5×10^7 cells. ml.^-1 and made 2 mM with respect to CaCl2. Aliquots of 0.5 ml were then dispensed into tubes, and incubated at 29° C. with 5 ul ethanol or compound in ethanol at the desired concentration for 2 min. Then [1-^14 C] arachidonic acid was added in buffer to give a final concentration of 6.3 uM and 0.2 uCi per incubation, and the reaction continued at 29° C. for 2 min. The reaction was terminated by adding 1 ml of acetone and cooling on ice, 0.5 ml of ice-cold saline and 100 ul of 2N formic acid were added, and the mixture was extracted with 2×2 ml of chloroform. The extract was stored under N2 at -20° C. until analysis by chromatography. Activity was measured as the percentage of total radioactivity found in 5-HETE and 5,12-diHETE, and inhibition calculated as the decrease in formation of the sum of these two species in compound-treated incubates relative to control incubations.

[2] = test system: cyclo-oxygenase (bovine seminal vesicle microsomes); assay: Cyclo-oxygenase Screen; assay type: biochemical; conditions: at 50 μM compound; decrease in prostaglandin formation
Protocol: (2) Cyclo-oxygenase Screen
Compounds were preincubated with the incubation constitutents for 5 min at 37° C. before the reaction was started by the addition of the arachidonic acid. The reaction was continued at 37° C. for 2 min, then stopped by placing the incubations on ice and the addition of 1.2 ml 0.2M citric acid. Unmetabolised substrate and prostaglandin products were extracted in ethyl acetate (2×4 ml), the combined extracts washed with 0.8 ml water, and separated by thin-layer chromatography (Kieselgel GF254 plates in ethyl acetate:acetone:glacial acetic acid, 90:10:1, v/v). Recovery was 65-80%. The regions on the thin-layer chromatography plate that chromatographed with authentic arachidonic acid or prostaglandins E2 and F2 α (Rf 's 0.70, 0.28 and 0.16 respectively) were scraped and the radioactivity in each determined by liquid scintillation counting with a correction for quenching being made by the external standard-channels ratio method. Inhibition of cyclo-oxygenase activity was calculated from the decrease in prostaglandin formation. Each compound concentration was tested in triplicate and the 50% inhibitory concentration, if determined, was calculated by linear regression from the inhibitory data at, at least three different compound concentrations.

Row | SMILES | inhibition at 20 µM [1] | Per cent inhibition of cyclo-oxygenase at 50 μM concentration [2] | inhibition at 5 µM ([1]; at 5 μM compound)
1 | CCCCCCCCCCCC#Cc1cnccc1/C=C/C(=O)O [Example 2, 3-[3-(1-Tridecynyl)-4-pyridyl)prop-2-enoic acid] | 30% |  | 
2 | CCCCCCCCCCCC#Cc1cnccc1C=C(C(=O)O)C(=O)O [Example 4, 2-[3-(1-Tridecynyl)-4-pyridyl]methylenepropane-1,3-dioic acid] | 72% | 15% | 
3 | CCCCCCCCCCCC#Cc1ccoc1/C=C/C(=O)O [Example 7, 3-[3-(1-Tridecynyl)-2-furanyl]prop-2-enoic acid] |  | 46% | 38%
